# Results: US9308180B2, “Compositions and methods for preparation of poorly water soluble drugs with increased stability” (Abraxis BioScience, LLC, priority 2005, dated 2016)
# Experiments:
# [1] = Rate of dissolution of docetaxel forms in acetonitrile; type: physicochemical; settings: 5 mg/mL (anhydrous basis)
# Protocol: To compare if the different types of docetaxel material had different solubility profiles as a result of their different structures, their solubility rates were compared in the solvent acetonitrile. Acetonitrile was added to a fixed amount of docetaxel from different suppliers to obtain a concentration of 5 mg/mL (anhydrous basis). The rate at which dissolution of the different docetaxels occurred was observed. It was observed that the anhydrous docetaxels (from 2 different suppliers) dissolved completely in less than 1 minute. […] Under these further diluted conditions, the time to dissolve was between 5 and 10 minutes for the hydrated materials. A similar observation was made when using the solvent chloroform.
# [2] = Stability of docetaxel forms dissolved in Tween 80; type: physicochemical; settings: 40 mg/mL (on anhydrous basis) in Tween 80, after a few days
# Protocol: It is well known that docetaxel is formulated with Tween 80 as a solubilizer or emulsifier for the commercial product Taxotere. The different docetaxels were dissolved in Tween 80 at a concentration of 40 mg/mL (on anhydrous basis). […] Thus, the anhydrous docetaxel is preferred in the Tween formulation. In addition it may be useful to use a Tween 80 or equivalent surfactant that is anhydrous or very low in water content as the anhydrous form of docetaxel may absorb water to form the hydrated form which could result in precipitation.
Time to dissolve completely [1],Sediment or precipitate in Tween 80 solution [2],Dissolution (observation) [1],Structure (SMILES)
less than 1 minute,no precipitate was observed,,"CC(=O)O[C@@]12CO[C@@H]1C[C@H](O)[C@@]1(C)C(=O)[C@H](O)C3=C(C)[C@@H](OC(=O)[C@H](O)[C@@H](NC(=O)OC(C)(C)C)c4ccccc4)C[C@@](O)([C@@H](OC(=O)c4ccccc4)[C@H]21)C3(C)C [anhydrous docetaxel, docetaxel]"
,,did not readily dissolve,"CC(=O)O[C@@]12CO[C@@H]1C[C@H](O)[C@@]1(C)C(=O)[C@H](O)C3=C(C)[C@@H](OC(=O)[C@H](O)[C@@H](NC(=O)OC(C)(C)C)c4ccccc4)C[C@@](O)([C@@H](OC(=O)c4ccccc4)[C@H]21)C3(C)C [partial hydrate, docetaxel hemihydrate]"
